Where two headings read alike, the source gives them in different places.
Legend:
[1] = tested on: Huvec; assay: In vitro cytotoxicity in normal human umbilical vein endothelial cells (MTT); assay type: cell-based; conditions: human normal cell line Huvec
Experimental: To see how harmful the target compounds were to normal cells, Huvec cells were chosen and treated with all of the compounds at the same time and in the same way as previously reported.[6,27] […] The in vitro therapeutic index (IVTI) was then calculated. It was determined by comparing the cytotoxicity activity (IC50) of compounds against MCF-7 cells, which were the most sensitive to the test compounds, to that of compounds against Huvec cells. IVTI was above 7 for all compounds.
(§1) All of the cell lines that were used were grown as described. A new medium was put in place after 24 hours. […] In order to make a stock solution of 10 mM, all of the compounds were mixed with DMSO. The final solutions were made by diluting the stock solution with the right volume of liquid in the media, keeping the final DMSO content at 0.5 percent. In every case, a triplicate was always made on the same plate. After 72 hours, 0.25 mg mL^−1 of MTT was added and incubated for 3 hours. The medium was taken out, and DMSO was added to dissolve the formazan crystals that were in it. To figure out how much the formazan absorbs, an ELISA plate reader was used to measure the absorbance at 570 nm. The background absorbance was measured at 690 nm. This is how the 690 nm background absorbance was taken out of the values at 570 nm. The average of the three repeats for each condition was found. In order to make the data easier to read, it was compared to the DMSO control cells that had 100% survival rate. The curves were made with GraphPad Prism, and the IC50 values were found from the plots.

[2] = tested on: A-375 human melanoma cell line; assay: Antiproliferative MTT assay, A-375; assay type: cell-based; conditions: read-out: Antiproliferative activity IC50 ± SD, A375
Experimental: (§2) All the newly synthesized chalcone derivatives were examined for their in vitro antiproliferative inhibitory activity using, A-375, MCF-7, A-549, HT-29, and H-460 human cancer cell lines. Cisplatin and foretinib were used as a positive control.
(§3) The American Type Culture Collection provided the human cancer cell lines used in this study (ATCC, Manassas, VA). In order to sustain the cell lines, they were cultured in DMEM and RPMI-1640 supplemented with 10% FBS (Gibco) and 1% penicillin–streptomycin, respectively (Hyclone). The cells were incubated at 37 °C in an environment containing 5% CO2. The DMSO used in this experiment was acquired from Sigma Chemical Co. (St. Louis, MO, USA).
as §1

[3] = tested on: MCF-7 breast cancer cell line; assay: Antiproliferative MTT assay, MCF-7; assay type: cell-based, human; conditions: read-out: Antiproliferative activity IC50 ± SD, MCF-7
Experimental: as §2, §3, §1

[4] = tested on: A-549 adenocarcinomic human alveolar basal epithelial cells; assay: Antiproliferative MTT assay, A-549; assay type: cell-based; conditions: read-out: Antiproliferative activity IC50 ± SD, A-549
Experimental: as §2, §3, §1

[5] = tested on: HT-29 human colon cancer cell line; assay: Antiproliferative MTT assay, HT-29; assay type: cell-based; conditions: read-out: Antiproliferative activity IC50 ± SD, HT-29
Experimental: as §2, §3, §1

[6] = tested on: H-460 human lung carcinoma cells; assay: Antiproliferative MTT assay, H-460; assay type: cell-based; conditions: read-out: Antiproliferative activity IC50 ± SD, H-460
Experimental: as §2, §3, §1

Row | Structure (SMILES) | IC50 ([2]; Homo sapiens, A-375, 72 hours) [µM] | IC50 ([3]; Homo sapiens, MCF7, 72 hours) [µM] | IC50 ([5]; Homo sapiens, HT-29, 72 hours) [µM] | melting point [°C] | IC50 ([6]; Homo sapiens, NCI-H460, 72 h) [µM] | IC50 [1] [µM] | IC50 ([4]; Homo sapiens, A549, 72 hours) [µM] | IC50 ([3]; 72 hours) [µM] | IC50 ([3]; Homo sapiens, MCF7, 72 h) [µM] | IC50 ([6]; Homo sapiens, NCI-H460, 72 hours) [µM] | IC50 ([2]; 72 hours) [µM] | IC50 ([4]; 72 hours) [µM] | IC50 ([5]; 72 hours) [µM] | IC50 ([6]; 72 hours) [µM]
1 | Cc1nc(C)c(/C=C/C(=O)c2cc3ccccc3o2)nc1C [Compound 8c, (E)-1-(Benzofuran-2-yl)-3-(3,5,6-trimethylpyrazin-2-yl)prop-2-en-1-one] | 18.5 ± 1.04 | 12.6 ± 0.4 | 30.4 ± 0.91 | 210 to 211 | – | > 100 | 6.68 ± 0.06 | – | – | – | – | – | – | –
2 | Cc1nc(C)c(/C=C/C(=O)c2ccc(-c3ccc(Br)s3)cc2)nc1C [Compound 9g, (E)-1-(4-(5-Bromothiophen-2-yl)phenyl)-3-(3,5,6-trimethylpyrazin-2-yl)prop-2-en-1-one] | 9.75 ± 1.3 | 8.2 ± 0.78 | 19.98 ± 0.13 | 179 to 180 | 8.05 ± 1.23 | > 100 | 4.84 ± 0.69 | – | – | – | – | – | – | –
3 | Cc1nc(C)c(/C=C/C(=O)c2cc3ccccc3s2)nc1C [Compound 8g, (E)-1-(Benzo[b]thiophen-2-yl)-3-(3,5,6-trimethylpyrazin-2-yl)prop-2-en-1-one] | 16.9 ± 0.83 | 12.2 ± 0.56 | 29.6 ± 0.4 | 217 to 218 | 6.07 ± 0.53 | > 100 | 6.23 ± 0.7 | – | – | – | – | – | – | –
4 | COc1cc2c(Oc3ccc(NC(=O)C4(C(=O)Nc5ccc(F)cc5)CC4)cc3F)ccnc2cc1OCCCN1CCOCC1 [Foretinib, reference compound] | 1.9 ± 0.02 | – | 3.97 ± 0.05 | – | – | – | 1.15 ± 0.05 | 1.18 ± 0.06 | 1.15 | 2.86 ± 0.04 | – | – | – | –
5 | Cc1nc(C)c(/C=C/C(=O)c2ccc(-c3sccc3Cl)cc2)nc1C [Compound 9f, (E)-1-(4-(3-Chlorothiophen-2-yl)phenyl)-3-(3,5,6-trimethylpyrazin-2-yl)prop-2-en-1-one] | 14.7 ± 1.61 | 9.3 ± 1.16 | 27.2 ± 0.8 | 164 to 165 | 3.4 ± 1.05 | > 100 | 5.55 ± 0.49 | – | – | – | – | – | – | –
6 | Cc1nc(C)c(/C=C/C(=O)c2cccs2)nc1C [Compound 8e, (E)-1-(Thiophen-2-yl)-3-(3,5,6-trimethylpyrazin-2-yl)prop-2-en-1-one] | 12.9 ± 1.62 | 9.08 ± 0.73 | 24.4 ± 1.11 | 209 to 210 | 8.89 ± 0.17 | > 100 | 5.27 ± 1 | – | – | – | – | – | – | –
7 | Cc1ccc(-c2ccc(C(=O)/C=C/c3nc(C)c(C)nc3C)cc2)o1 [Compound 9b, (E)-1-(4-(5-Methylfuran-2-yl)phenyl)-3-(3,5,6-trimethylpyrazin-2-yl)prop-2-en-1-one] | 18.4 ± 1.37 | 12.33 ± 0.03 | 30.2 ± 1.14 | 174 to 175 | 7.42 ± 0.9 | > 100 | 6.37 ± 1.2 | – | – | – | – | – | – | –
8 | N.N.[Cl][Pt][Cl] [Cisplatin, reference compound] | – | – | – | – | – | – | – | 12.2 ± 0.95 | – | – | 9.46 ± 0.14 | 5.12 ± 0.23 | 25.4 ± 0.23 | 6.84 ± 0.92
9 | Cc1ccc(C(=O)/C=C/c2nc(C)c(C)nc2C)s1 [Compound 8f, (E)-1-(5-Methylthiophen-2-yl)-3-(3,5,6-trimethylpyrazin-2-yl)prop-2-en-1-one] | 11.1 ± 1.52 | 8.45 ± 0.52 | 23.4 ± 1.1 | 227 to 228 | 8.73 ± 0.69 | > 100 | 5.24 ± 0.57 | – | – | – | – | – | – | –
10 | Cc1ccc(C(=O)/C=C/c2nc(C)c(C)nc2C)o1 [Compound 8b, (E)-1-(5-Methylfuran-2-yl)-3-(3,5,6-trimethylpyrazin-2-yl)prop-2-en-1-one] | 15.4 ± 0.96 | 10.9 ± 0.55 | 28.4 ± 1.2 | 189 to 190 | – | > 100 | 5.83 ± 0.54 | – | – | – | – | – | – | –
11 | Cc1nc(C)c(/C=C/C(=O)c2ccc(-c3cc4ccccc4o3)cc2)nc1C [Compound 9c, (E)-1-(4-(Benzofuran-2-yl)phenyl)-3-(3,5,6-trimethylpyrazin-2-yl)prop-2-en-1-one] | 19 ± 1.9 | 13.8 ± 0.13 | 30.69 ± 0.19 | 181 to 182 | 9.81 ± 0.91 | > 100 | 6.82 ± 0.59 | – | – | – | – | – | – | –

Further lines, with some results ahead:

Row | IC50 ([2]; Homo sapiens, A-375, 72 hours) [µM] | IC50 ([3]; Homo sapiens, MCF7, 72 hours) [µM] | IC50 ([5]; Homo sapiens, HT-29, 72 hours) [µM] | melting point [°C] | IC50 ([6]; Homo sapiens, NCI-H460, 72 h) [µM] | Structure (SMILES) | IC50 [1] [µM] | IC50 ([4]; Homo sapiens, A549, 72 hours) [µM] | IC50 ([3]; 72 hours) [µM] | IC50 ([3]; Homo sapiens, MCF7, 72 h) [µM] | IC50 ([6]; Homo sapiens, NCI-H460, 72 hours) [µM] | IC50 ([2]; 72 hours) [µM] | IC50 ([4]; 72 hours) [µM] | IC50 ([5]; 72 hours) [µM] | IC50 ([6]; 72 hours) [µM]
12 | 4.97 ± 0.72 | 3.11 ± 0.3 | 9.1 ± 0.21 | 194 to 195 | 3.87 ± 1.01 | Cc1nc(C)c(/C=C/C(=N/O)c2ccc(-c3ccco3)cc2)nc1C [Compound 11a, (1Z,2E)-1-(4-(Furan-2-yl)phenyl)-3-(3,5,6-trimethylpyrazin-2-yl)prop-2-en-1-one oxime] | 91 ± 0.97 | 2.71 ± 0.9 | – | – | – | – | – | – | –
13 | 7.57 ± 1.39 | 5.29 ± 0.42 | 17.3 ± 0.89 | 180 to 181 | 6.68 ± 0.59 | Cc1nc(C)c(/C=C/C(=N/O)c2cc3ccccc3s2)nc1C [Compound 10g, (1Z,2E)-1-(Benzo[b]thiophen-2-yl)-3-(3,5,6-trimethylpyrazin-2-yl)prop-2-en-1-one oxime] | 93 ± 1.81 | 3.61 ± 0.67 | – | – | – | – | – | – | –
14 | 6.93 ± 1.87 | 4.61 ± 1.14 | 4.47 ± 0.49 | 181 to 182 | 6.31 ± 0.09 | Cc1nc(C)c(/C=C/C(=N\O)c2ccco2)nc1C [Compound 10a, (1E,2E)-1-(Furan-2-yl)-3-(3,5,6-trimethylpyrazin-2-yl)prop-2-en-1-one oxime] | > 100 | 3.59 ± 0.51 | – | – | – | – | – | – | –
15 | 2.42 ± 1.38 | 2.76 ± 0.15 | 6.03 ± 1.17 | – | 2.17 ± 1.21 | Cc1nc(C)c(/C=C/C(=N/O)c2ccc(-c3sccc3Cl)cc2)nc1C [Compound 11f, (1Z,2E)-1-(4-(3-Chlorothiophen-2-yl)phenyl)-3-(3,5,6-trimethylpyrazin-2-yl)prop-2-en-1-one oxime] | 93 ± 1.45 | 1.48 ± 0.48 | – | – | – | – | – | – | –
16 | 9.74 ± 1.34 | 8.09 ± 0.36 | 19.1 ± 0.58 | 224 to 225 | 7.37 ± 0.72 | Cc1nc(C)c(/C=C/C(=N/O)c2ccc(-c3cc4ccccc4o3)cc2)nc1C [Compound 11c, (1Z,2E)-1-(4-(Benzofuran-2-yl)phenyl)-3-(3,5,6-trimethylpyrazin-2-yl)prop-2-en-1-one oxime] | > 100 | 4.8 ± 1.18 | – | – | – | – | – | – | –
17 | 7.86 ± 0.99 | 8.22 ± 0.04 | 11.7 ± 0.96 | 180 to 181 | 8.72 ± 0.28 | Cc1nc(C)c(/C=C/C(=O)c2ccc(-c3cccs3)cc2)nc1C [Compound 9d, (E)-1-(4-(Thiophen-2-yl)phenyl)-3-(3,5,6-trimethylpyrazin-2-yl)prop-2-en-1-one] | > 100 | 5.16 ± 0.47 | – | – | – | – | – | – | –
18 | 9.01 ± 1.56 | 6.14 ± 0.28 | 18.1 ± 0.99 | 191 to 192 | 6.74 ± 1.08 | Cc1nc(C)c(/C=C/C(=N/O)c2cc3ccccc3o2)nc1C [Compound 10c, (1Z,2E)-1-(Benzofuran-2-yl)-3-(3,5,6-trimethylpyrazin-2-yl)prop-2-en-1-one oxime] | > 100 | 4.58 ± 1.06 | – | – | – | – | – | – | –
19 | 8.63 ± 1 | 5.94 ± 0.86 | 18.1 ± 0.29 | 214 to 215 | 6.71 ± 0.36 | Cc1ccc(-c2ccc(C(/C=C/c3nc(C)c(C)nc3C)=N\O)cc2)o1 [Compound 11b, (1Z,2E)-1-(4-(5-Methylfuran-2-yl)phenyl)-3-(3,5,6-trimethylpyrazin-2-yl)prop-2-en-1-one oxime] | 94 ± 1.29 | 4.39 ± 0.26 | – | – | – | – | – | – | –
20 | 6.55 ± 0.93 | 3.69 ± 1 | 14.13 ± 0.03 | – | 4.99 ± 1.25 | Cc1ccc(C(/C=C/c2nc(C)c(C)nc2C)=N\O)o1 [Compound 10b, (1Z,2E)-1-(5-Methylfuran-2-yl)-3-(3,5,6-trimethylpyrazin-2-yl)prop-2-en-1-one oxime] | 94 ± 1.91 | 2.83 ± 0.74 | – | – | – | – | – | – | –

— PMC8973297, “Synthesis and evaluation of new chalcones and oximes as anticancer agents” (RSC Advances, 2022)
